Reference: patent publication US10821115B2, “Compounds that inhibit Mcl-1 protein” (priority 2017, dated 2020)

Experiments:
[1] = biological target: recombinant human Mcl-1 (residues 171-327) / Bim interaction (Homo sapiens (Human), UniProt Q07820); assay: biochemical; type: binding; conditions: 0.1 nM Mcl-1(171-327), 0.05 nM biotin-Bim (51-76); read-out: Mcl-1 HTRF IC50
[2] = system: human multiple myeloma cell line, OPM-2; assay: Cell viability assay (OPM-2 10 FBS), CellTiter-Glo; type: cell-based; conditions: Homo sapiens, OPM-2, 16 h, read-out: OPM-2 10% FBS IC50 IP, OPM-2 cells, 10% FBS, 16 h incubation
Outline: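 Serially diluted test compounds are incubated 16 h with cells (3000/well) in RPMI 1640 supplemented with 10% FBS. Viability is then measured by luminescence and IC50 calculated by 4-parameter logistic fit.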

recombinant human Mcl-1 (residues 171-327) / Bim interaction, sequence (Q07820 171-327): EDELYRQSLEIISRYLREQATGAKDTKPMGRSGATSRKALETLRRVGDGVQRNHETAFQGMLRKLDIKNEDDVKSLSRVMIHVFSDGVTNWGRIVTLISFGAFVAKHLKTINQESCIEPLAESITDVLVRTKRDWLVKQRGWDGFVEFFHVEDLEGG

| SMILES | IC50 [1] | IC50 [2] |
| --- | --- | --- |
| CO[C@@]1(CN2CCN3C(=O)COC[C@@H]3C2)/C=C/C[C@H](C)[C@@H](C)S(=O)(=O)NC(=O)c2ccc3c(c2)N(C[C@@H]2CC[C@H]21)C[C@@]1(CCCc2cc(Cl)ccc21)CO3 [Example 141, (1S,3′R,6′R,7′S,8′E,11′S,12′R)-6-chloro-7′-methoxy-11′,12′-dimethyl-7′-(((9aS)-4-oxohexahydropyrazino[2,1-c][1,4]oxazin-8(1H)-yl)methyl)-3,4-dihydro-2H,15′H-spiro[naphthalene-1,22′-[20]oxa[13]thia[1,14]diazatetracyclo [14.7.2.0~3,6~.0~19,24~]pentacosa[8,16,18,24]tetraen]-15′-one 13′,13′-dioxide] | 0.152 nM | 367 nM |
| CO[C@]1(CN2CCN3C(=O)[C@H](C)OC[C@@H]3C2)/C=C/C[C@H](C)[C@@H](C)S(=O)(=O)NC(=O)c2ccc3c(c2)N(C[C@@H]2CC[C@H]21)C[C@@]1(CCCc2cc(Cl)ccc21)CO3 [Example 142, (1S,3′R,6′R,7′R,8′E,11′S,12′R)-6-chloro-7′-methoxy-11′,12′-dimethyl-7′-(((3S,9aS)-3-methyl-4-oxohexahydropyrazino[2,1-c][1,4]oxazin-8(1H)-yl)methyl)-3,4-dihydro-2H,15′H-spiro[naphthalene-1,22′-[20]oxa[13]thia[1,14]diazatetracyclo [14.7.2.0~3,6~.0~19,24~]pentacosa[8,16,18,24]tetraen]-15′-one 13′,13′-dioxide] | 0.157 nM | 174 nM |
| CO[C@@]1(CN2CCN3C(=O)[C@H](C)OC[C@@H]3C2)/C=C/C[C@H](C)[C@@H](C)S(=O)(=O)NC(=O)c2ccc3c(c2)N(C[C@@H]2CC[C@H]21)C[C@@]1(CCCc2cc(Cl)ccc21)CO3 [Example 143, (1S,3′R,6′R,7′S,8′E,11′S,12′R)-6-chloro-7′-methoxy-11′,12′-dimethyl-7′-(((3S,9aS)-3-methyl-4-oxohexahydropyrazino[2,1-c][1,4]oxazin-8(1H)-yl)methyl)-3,4-dihydro-2H,15′H-spiro[naphthalene-1,22′-[20]oxa[13]thia[1,14]diazatetracyclo [14.7.2.0~3,6~.0~19,24~]pentacosa[8,16,18,24]tetraen]-15′-one 13′,13′-dioxide] | 0.432 nM | 219 nM |
| CO[C@]1(CN2CCN3C(=O)[C@@H](C)OC[C@@H]3C2)/C=C/C[C@H](C)[C@@H](C)S(=O)(=O)NC(=O)c2ccc3c(c2)N(C[C@@H]2CC[C@H]21)C[C@@]1(CCCc2cc(Cl)ccc21)CO3 [Example 144, (1S,3′R,6′R,7′R,8′E,11′S,12′R)-6-chloro-7′-methoxy-11′,12′-dimethyl-7′-(((3R,9aS)-3-methyl-4-oxohexahydropyrazino[2,1-c][1,4]oxazin-8(1H)-yl)methyl)-3,4-dihydro-2H,15′H-spiro[naphthalene-1,22′-[20]oxa[13]thia[1,14]diazatetracyclo [14.7.2.0~3,6~.0~19,24~]pentacosa[8,16,18,24]tetraen]-15′-one 13′,13′-dioxide] | 0.271 nM | 163 nM |
| CO[C@@]1(CN2CCN3C[C@H](C)OC[C@@H]3C2)/C=C/C[C@H](C)[C@@H](C)S(=O)(=O)NC(=O)c2ccc3c(c2)N(C[C@@H]2CC[C@H]21)C[C@@]1(CCCc2cc(Cl)ccc21)CO3 [Example 145, (1S,3′R,6′R,7′S,8′E,11′S,12′R)-6-chloro-7′-methoxy-11′,12′-dimethyl-7′-(((3S,9aS)-3-methylhexahydropyrazino[2,1-c][1,4]oxazin-8(1H)-yl)methyl)-3,4-dihydro-2H,15′H-spiro[naphthalene-1,22′-[20]oxa[13]thia[1,14]diazatetracyclo [14.7.2.0~3,6~.0~19,24~]pentacosa[8,16,18,24]tetraen]-15′-one 13′,13′-dioxide] | 0.124 nM | 113 nM |
| CO[C@]1(CN2CCN3C[C@H](C)OC[C@@H]3C2)/C=C/C[C@H](C)[C@@H](C)S(=O)(=O)NC(=O)c2ccc3c(c2)N(C[C@@H]2CC[C@H]21)C[C@@]1(CCCc2cc(Cl)ccc21)CO3 [Example 146, (1S,3′R,6′R,7′R,8′E,11′S,12′R)-6-chloro-7′-methoxy-11′,12′-dimethyl-7′-(((3S,9aS)-3-methylhexahydropyrazino[2,1-c][1,4]oxazin-8(1H)-yl)methyl)-3,4-dihydro-2H,15′H-spiro[naphthalene-1,22′-[20]oxa[13]thia[1,14]diazatetracyclo [14.7.2.0~3,6~.0~19,24~]pentacosa[8,16,18,24]tetraen]-15′-one 13′,13′-dioxide] | 0.337 nM | 150 nM |
| CO[C@@]1(CN2CCN3C[C@@H](C)OC[C@@H]3C2)/C=C/C[C@H](C)[C@@H](C)S(=O)(=O)NC(=O)c2ccc3c(c2)N(C[C@@H]2CC[C@H]21)C[C@@]1(CCCc2cc(Cl)ccc21)CO3 [Example 147, (1S,3′R,6′R,7′S,8′E,11′S,12′R)-6-chloro-7′-methoxy-11′,12′-dimethyl-7′-(((3R,9aS)-3-methylhexahydropyrazino[2,1-c][1,4]oxazin-8(1H)-yl)methyl)-3,4-dihydro-2H,15′H-spiro[naphthalene-1,22′-[20]oxa[13]thia[1,14]diazatetracyclo [14.7.2.0~3,6~.0~19,24~]pentacosa[8,16,18,24]tetraen]-15′-one 13′,13′-dioxide] | 0.376 nM | 157 nM |
| CO[C@@]1(CN2CCc3ccccc3C2)/C=C/C[C@H](C)[C@@H](C)S(=O)(=O)NC(=O)c2ccc3c(c2)N(C[C@@H]2CC[C@H]21)C[C@@]1(CCCc2cc(Cl)ccc21)CO3 [Example 148, (1S,3′R,6′R,7′S,8′E,11′S,12′R)-6-chloro-7′-(3,4-dihydro-2(1H)-isoquinolinylmethyl)-7′-methoxy-11′,12′-dimethyl-3,4-dihydro-2H,15′H-spiro[naphthalene-1,22′-[20]oxa[13]thia[1,14]diazatetracyclo [14.7.2.0~3,6~.0~19,24~]pentacosa[8,16,18,24]tetraen]-15′-one 13′,13′-dioxide] | 1.2 nM | 1610 nM |
| CO[C@]1(CN2CC(=O)N3CCCC[C@@H]3C2)/C=C/C[C@H](C)[C@@H](C)S(=O)(=O)NC(=O)c2ccc3c(c2)N(C[C@@H]2CC[C@H]21)C[C@@]1(CCCc2cc(Cl)ccc21)CO3 [Example 149] | 0.128 nM | 119 nM |
| CO[C@@]1(CN2CC(=O)N3CCCC[C@@H]3C2)/C=C/C[C@H](C)[C@@H](C)S(=O)(=O)NC(=O)c2ccc3c(c2)N(C[C@@H]2CC[C@H]21)C[C@@]1(CCCc2cc(Cl)ccc21)CO3 [Example 150, (1S,3′R,6′R,7′S,8′E,11′S,12′R)-6-chloro-7′-methoxy-11′,12′-dimethyl-7′-(((9aR)-4-oxooctahydro-2H-pyrido[1,2-a]pyrazin-2-yl)methyl)-3,4-dihydro-2H,15′H-spiro[naphthalene-1,22′-[20]oxa[13]thia[1,14]diazatetracyclo [14.7.2.0~3,6~.0~19,24~]pentacosa[8,16,18,24]tetraen]-15′-one 13′,13′-dioxide] | 0.193 nM | 245 nM |
| COCCO[C@]1(CN2CCN3CCCC[C@@H]3C2)/C=C/C[C@H](C)[C@@H](C)S(=O)(=O)NC(=O)c2ccc3c(c2)N(C[C@@H]2CC[C@H]21)C[C@@]1(CCCc2cc(Cl)ccc21)CO3 [Example 152, (1S,3′R,6′R,7′R,8′E,11′S,12′R)-6-chloro-7′-(2-methoxyethoxy)-11′,12′-dimethyl-7′-((9aR)-octahydro-2H-pyrido[1,2-a]pyrazin-2-ylmethyl)-3,4-dihydro-2H,15′H-spiro[naphthalene-1,22′-[20]oxa[13]thia[1,14]diazatetracyclo [14.7.2.0~3,6~.0~19,24~]pentacosa[8,16,18,24]tetraen]-15′-one 13′,13′-dioxide] | 0.092 nM | 110 nM |
| CO[C@]1(CN2CCN(CC(C)(C)C)CC2)/C=C/C[C@H](C)[C@@H](C)S(=O)(=O)NC(=O)c2ccc3c(c2)N(C[C@@H]2CC[C@H]21)C[C@@]1(CCCc2cc(Cl)ccc21)CO3 [Example 153, (1S,3′R,6′R,7′R,8′E,11′S,12′R)-6-chloro-7′-((4-(2,2-dimethylpropyl)-1-piperazinyl)methyl)-7′-methoxy-11′,12′-dimethyl-3,4-dihydro-2H,15′H-spiro[naphthalene-1,22′-[20]oxa[13]thia[1,14]diazatetracyclo [14.7.2.0~3,6~.0~19,24~]pentacosa[8,16,18,24]tetraen]-15′-one 13′,13′-dioxide] | 0.96 nM | 10800 nM |
| C[C@@H]1[C@@H](C)C/C=C/[C@@](CN2CCN3CCCC[C@@H]3C2)(OCC2CC2)[C@@H]2CC[C@H]2CN2C[C@@]3(CCCc4cc(Cl)ccc43)COc3ccc(cc32)C(=O)NS1(=O)=O [Example 155, (1S,3′R,6′R,7′R,8′E,11′S,12′R)-6-chloro-7′-(cyclopropylmethoxy)-11′,12′-dimethyl-7′-((9aR)-octahydro-2H-pyrido[1,2-a]pyrazin-2-ylmethyl)-3,4-dihydro-2H,15′H-spiro[naphthalene-1,22′-[20]oxa[13]thia[1,14]diazatetracyclo [14.7.2.0~3,6~.0~19,24~]pentacosa[8,16,18,24]tetraen]-15′-one 13′,13′-dioxide] | 0.228 nM | 378 nM |
| CO[C@@]1(CN2CCN3CCOC[C@@H]3C2)/C=C/[C@H](C)[C@H](C)CS(=O)(=O)NC(=O)c2ccc3c(c2)N(C[C@@H]2CC[C@H]21)C[C@@]1(CCCc2cc(Cl)ccc21)CO3 [Example 156, (1S,3′R,6′R,7′S,8′E,10′S,11′S)-6-chloro-7′-((9aS)-hexahydropyrazino[2,1-c][1,4]oxazin-8(1H)-ylmethyl)-7′-methoxy-10′,11′-dimethyl-3,4-dihydro-2H,15′H-spiro[naphthalene-1,22′-[20]oxa[13]thia[1,14]diazatetracyclo [14.7.2.0~3,6~.0~19,24~]pentacosa[8,16,18,24]tetraen]-15′-one 13′,13′-dioxide] | 0.096 nM | 62 nM |
